Measured values from ChEMBL document CHEMBL1201862, “PubChem BioAssay data set” (2004).
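Step 1: Grow cells in 96-well plates. Step 2: Expose to compound for 48 hours at 5 concentrations. Step 3: Interpolate endpoints linearly; if unreached, use highest concentration. GI50 marks 50% less growth.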 Calls of active or inactive are those of the source. Rule as the data show it: active = GI50 up to about 1.1 µM and inactive = higher.

What was measured:
Test in all cases: growth of human tumour cells (NCI), 48 h
PC-3 = system: PC-3
786-0 = system: 786-0
UACC-257 = system: UACC-257
SF-295 = system: SF-295
HCT-15 = system: HCT-15
MOLT-4 = system: MOLT-4
IGROV-1 = system: IGROV-1
CAKI-1 = system: CAKI-1
SW-620 = system: SW-620
T47D = system: T47D
OVCAR-5 = system: OVCAR-5
KM12 = system: KM12
HOP-62 = system: HOP-62
OVCAR-3 = system: OVCAR-3
MDA-MB-435 = system: MDA-MB-435
UACC-62 = system: UACC-62
SNB-19 = system: SNB-19
ACHN = system: ACHN
A549 = system: A549
Hs-578T = system: Hs-578T
CCRF-CEM = system: CCRF-CEM
MCF7 = system: MCF7
DU-145 = system: DU-145
BT-549 = system: BT-549
TK-10 = system: TK-10
RXF 393 = system: RXF 393
OVCAR-8 = system: OVCAR-8
SF-268 = system: SF-268
SF-539 = system: SF-539
SNB-75 = system: SNB-75
NCI-H226 = system: NCI-H226
EKVX = system: EKVX
SK-MEL-5 = system: SK-MEL-5
K562 = system: K562
RPMI-8226 = system: RPMI-8226
COLO 205 = system: COLO 205
NCI-H460 = system: NCI-H460
NCI-H23 = system: NCI-H23
HCT-116 = system: HCT-116
SR = system: SR
SK-MEL-2 = system: SK-MEL-2
NCI/ADR-RES = system: NCI/ADR-RES
HL-60 = system: HL-60
U-251 = system: U-251
SN12C = system: SN12C
MDA-MB-231 = system: MDA-MB-231
HT-29 = system: HT-29
M14 = system: M14
SK-MEL-28 = system: SK-MEL-28
UO-31 = system: UO-31
A498 = system: A498
HOP-92 = system: HOP-92
OVCAR-4 = system: OVCAR-4
Malme-3M = system: Malme-3M
HCC 2998 = system: HCC 2998
NCI-H522 = system: NCI-H522
LOX IMVI = system: LOX IMVI
MDA-N = system: MDA-N
SK-OV-3 = system: SK-OV-3

Measured: GI50

CN(C)c1nncc2[nH]cnc12
inactive: PC-3 > 100 µM | 786-0 > 100 µM | UACC-257 > 100 µM | SF-295 > 100 µM | MOLT-4 > 100 µM | IGROV-1 > 100 µM | CAKI-1 > 100 µM | SW-620 > 100 µM | T47D > 100 µM | OVCAR-5 > 100 µM | KM12 74.8 µM | HOP-62 > 100 µM | OVCAR-3 > 100 µM | MDA-MB-435 > 100 µM | UACC-62 > 100 µM | SNB-19 > 100 µM | ACHN > 100 µM | A549 > 100 µM | Hs-578T > 100 µM | CCRF-CEM > 100 µM | MCF7 > 100 µM | DU-145 > 100 µM | BT-549 > 100 µM | TK-10 > 100 µM | RXF 393 > 100 µM | OVCAR-8 > 100 µM | SF-268 > 100 µM | SF-539 > 100 µM | SNB-75 > 100 µM | NCI-H226 > 100 µM | EKVX > 100 µM | SK-MEL-5 > 100 µM | K562 > 100 µM | RPMI-8226 > 100 µM | COLO 205 > 100 µM | NCI-H460 > 100 µM | NCI-H23 > 100 µM | HCT-116 > 100 µM | SR > 100 µM | SK-MEL-2 > 100 µM | NCI/ADR-RES > 100 µM | HL-60 > 100 µM | U-251 > 100 µM | SN12C > 100 µM | MDA-MB-231 > 100 µM | HT-29 > 100 µM | M14 > 100 µM | SK-MEL-28 > 100 µM | UO-31 > 100 µM | A498 > 100 µM
> 100 µM: HCT-15

CCOc1nc(-c2ccccc2)cc(-c2ccc(N3CCOCC3)cc2)c1C#N
inactive: PC-3 > 100 µM | 786-0 > 100 µM | UACC-257 19.1 µM | SF-295 7.35 µM | MOLT-4 > 100 µM | IGROV-1 > 100 µM | CAKI-1 > 100 µM | SW-620 > 100 µM | HOP-92 > 100 µM | OVCAR-5 > 100 µM | KM12 > 100 µM | HOP-62 > 100 µM | OVCAR-3 > 100 µM | MDA-MB-435 > 100 µM | SNB-19 > 100 µM | ACHN > 100 µM | A549 > 100 µM | Hs-578T > 100 µM | CCRF-CEM > 100 µM | MCF7 > 100 µM | DU-145 > 100 µM | BT-549 > 100 µM | TK-10 > 100 µM | RXF 393 > 100 µM | OVCAR-8 > 100 µM | SF-268 > 100 µM | SF-539 > 100 µM | SNB-75 > 100 µM | OVCAR-4 > 100 µM | NCI-H226 > 100 µM | EKVX > 100 µM | SK-MEL-5 42.5 µM | K562 > 100 µM | RPMI-8226 77.4 µM | COLO 205 > 100 µM | NCI-H460 > 100 µM | Malme-3M > 100 µM | NCI-H23 > 100 µM | HCT-116 > 100 µM | SR > 100 µM | SK-MEL-2 > 100 µM | NCI/ADR-RES > 100 µM | HL-60 > 100 µM | U-251 > 100 µM | HCC 2998 > 100 µM | NCI-H522 > 100 µM | SN12C > 100 µM | MDA-MB-231 > 100 µM | HT-29 > 100 µM | M14 > 100 µM | LOX IMVI > 100 µM | SK-MEL-28 > 100 µM | MDA-N > 100 µM | UO-31 > 100 µM | A498 > 100 µM
> 100 µM: HCT-15

CCCCP(CCCC)(CCCC)=C(C(=O)OC)C(C(=O)OC)=C1SC(C(=O)OC)=C(C(=O)OC)S1
30.5 µM: HCT-15
inactive: PC-3 11.1 µM | 786-0 17.8 µM | UACC-257 17.6 µM | SF-295 19.3 µM | MOLT-4 11.9 µM | IGROV-1 11.6 µM | SW-620 23.4 µM | T47D 13.5 µM | OVCAR-5 23 µM | HOP-62 20.4 µM | OVCAR-3 19.3 µM | MDA-MB-435 14.8 µM | UACC-62 14.1 µM | SNB-19 20.3 µM | ACHN 22.9 µM | A549 17.6 µM | Hs-578T 18.5 µM | MCF7 16.8 µM | DU-145 40.8 µM | BT-549 15.7 µM | SK-OV-3 25.8 µM | TK-10 38.6 µM | RXF 393 10.3 µM | OVCAR-8 20.7 µM | SF-268 30.6 µM | SNB-75 17.5 µM | OVCAR-4 16.2 µM | NCI-H226 20 µM | EKVX 27.2 µM | SK-MEL-5 16.2 µM | RPMI-8226 63.2 µM | COLO 205 17 µM | NCI-H460 16 µM | Malme-3M 18.2 µM | NCI-H23 17.5 µM | HCT-116 12 µM | SR 34.8 µM | SK-MEL-2 26.2 µM | NCI/ADR-RES > 10 µM | U-251 16 µM | NCI-H522 17.7 µM | SN12C 15.5 µM | MDA-MB-231 17.9 µM | HT-29 14.5 µM | M14 15.2 µM | LOX IMVI 13.2 µM | SK-MEL-28 15.5 µM | UO-31 20.3 µM

C[N+](C)(C)CCOP(=O)([O-])OCCNC(=O)c1ccc2ccccc2c1
> 100 µM: HCT-15
inactive: PC-3 > 100 µM | 786-0 > 100 µM | UACC-257 > 100 µM | SF-295 > 100 µM | MOLT-4 > 100 µM | IGROV-1 > 100 µM | CAKI-1 > 100 µM | SW-620 > 100 µM | T47D > 100 µM | OVCAR-5 > 100 µM | KM12 > 100 µM | HOP-62 > 100 µM | OVCAR-3 > 100 µM | MDA-MB-435 > 100 µM | UACC-62 > 100 µM | SNB-19 > 100 µM | ACHN > 100 µM | A549 > 100 µM | CCRF-CEM > 100 µM | MCF7 > 100 µM | DU-145 > 100 µM | BT-549 2.05 µM | SK-OV-3 > 100 µM | TK-10 > 100 µM | RXF 393 > 100 µM | OVCAR-8 > 100 µM | SF-268 > 100 µM | SF-539 > 100 µM | SNB-75 > 100 µM | NCI-H226 > 100 µM | EKVX > 100 µM | SK-MEL-5 > 100 µM | K562 > 100 µM | RPMI-8226 > 100 µM | COLO 205 > 100 µM | Malme-3M > 100 µM | NCI-H23 > 100 µM | HCT-116 > 100 µM | SR > 100 µM | NCI/ADR-RES 31.5 µM | HL-60 > 100 µM | U-251 > 100 µM | HCC 2998 > 100 µM | NCI-H522 > 100 µM | SN12C > 100 µM | MDA-MB-231 > 100 µM | HT-29 > 100 µM | M14 > 100 µM | LOX IMVI > 100 µM | SK-MEL-28 > 100 µM | MDA-N > 100 µM | UO-31 > 100 µM
